“Also recorded” adds a separate entry of the source. Like-named read-outs stand apart in the source and are kept apart here.
Assays:
primary mouse islets = test: Static GSIS test using primary mouse islets; assay type: cell-based; settings: FKN 100 ng/ml; PTX 250 ng/ml, Wortmannin 10 μM, PD98059 50 μM
Protocol: (FIGS. 6A-1 to 6A-4) GSIS test using primary mouse islets with or without pertussis toxin (PTX; 250 ng/ml), Wortmannin (Wort; 10 μM), or PD98059 (50 μM), in the presence or absence of FKN (100 ng/ml). Mean+/−SEM, n=6 per group.
Isolated mouse islets were cultured overnight in mouse islet media (DMEM containing 1 g/L glucose, 10% v/v FBS, 0.1% v/v Penicillin/Streptomycin).

Min6 cells [1] = test: Intracellular calcium level measurement (fura-2) in Min6 cells; assay type: cell-based, mouse
Protocol: (FIGS. 6C to 6I) Intracellular calcium level in Min6 mouse beta cells in the presence or absence of glucose (FIG. 6C, with glucose; FIG. 6D, without glucose), nimodipine (10 μM) (FIG. 6E), control antibody (FIG. 6F), anti-CX3CR1 neutralizing antibody (FIG. 6G), PTX (250 ng/ml) (FIG. 6H), or U0126 (10 μM) (FIG. 6I). Mean+/−SEM.
(FIGS. 15A-1 to 15B-3) Intracellular calcium level in Min6 cells. Min6 cells were incubated in 2.8 mM glucose media with or without U0126 (10 μM) for 30 minutes, and then subjected to intracellular calcium measurement in the presence or absence of arginine (10 mM) and/or high glucose (16.7 mM) challenge. (FIGS. 15A-1 to 15A-3) Intracellular calcium level with arginine treatment. (FIGS. 15B-1 to 15B-3) Intracellular calcium level with arginine plus high glucose (16.7 mM) treatment. Area under the curve for first 90 (FIG. 15B-1) or 60 (FIG. 15B-2) seconds was graphed in FIG. 15B-3.
The Cytoplasmic free calcium ion concentration in Min6 cells was measured by fura-2 fluorescence ratio digital imaging. Briefly, Min6 cells, grown on coverslips, were loaded with 5 μM fura-2 AM [dissolved in 0.01% Pluronic F-127 plus 0.1% DMSO in KRB] at room temperature for 60 min and then washed in fresh KRB for 30 min. The coverslips with Min6 cells were mounted in a perfusion chamber on a Nikon microscope stage.

Min6 cells [2] = test: GSIS test using Min6 cells; assay type: cell-based, mouse; settings: for glucose- and arginine plus glucose-stimulated insulin secretion: U0126 10 μM, arginine 10 mM, glucose 16.7 mM
Protocol: (FIG. 6B) GSIS test using Min6 cells with or without FKN (100 ng/ml) or U0126 (10 μM). Mean+/−SEM.
Min6 cells were incubated in 2.8 mM glucose media with or without U0126 (10 μM) for 30 minutes, and then subjected to intracellular calcium measurement in the presence or absence of arginine (10 mM) and/or high glucose (16.7 mM) challenge.

Min6 cells [3] = test: Palmitate-induced ICER-1 and beta cell gene expression in Min6 cells (quantitative realtime RT-PCR); assay type: cell-based, mouse; settings: palmitate 0.4 mM, FKN 100 ng/ml, U0126 10 μM, 48 h
Protocol: Min6 cells were incubated with palmitate (Pal; 0.4 mM) in the presence or absence of FKN (100 ng/ml) or U0126 (10 μM). 48 h later, cells were harvested and subjected to quantitative realtime RT-PCR.

Min6 cells [4] = test: ERK phosphorylation western blot in Min6 cells; assay type: cell-based, mouse; settings: PTX 250 ng/ml pre-treatment 15 min
Protocol: FIG. 14. FKN stimulates ERK phosphorylation in a PTX-sensitive manner (related to FIGS. 6A-1 to 6Q-4). Min6 cells were pre-treated with DMSO (control), U0126 (10 μM), or PTX (250 ng/ml) for 15 min, and then incubated with or without FKN (100 ng) for 15 min. Cells were harvested and subjected to western blot.

human islets = test: Static GSIS studies using human islets; assay type: cell-based

**Q.** Which “effect of inhibitor on FKN-stimulated insulin secretion” value (primary mouse islets) does the source give for `COc1cccc(-c2cc(=O)c3ccccc3o2)c1N` [PD98059] here?
**A.** inhibited

**Q.** For `N#CC(=C(/N)Sc1ccccc1N)/C(C#N)=C(\N)Sc1ccccc1N` [U0126], which “arginine plus glucose-stimulated intracellular calcium increase” value (Min6 cells [1]) is on record?
**A.** attenuated; also recorded: reduces

**Q.** What about the “effect on FKN-induced intracellular calcium increase” value (Min6 cells [1]) of the same molecule?
**A.** blocked

**Q.** And the “effect on FKN potentiation of glucose and GLP1-induced insulin secretion” value (Min6 cells [2]; FIG. 6B: U0126 10 μM, FKN 100 ng/ml)?
**A.** suppressed

**Q.** And the “glucose- and arginine plus glucose-stimulated insulin secretion” value (Min6 cells [2])?
**A.** reduces

**Q.** What about the “glucose- and arginine plus glucose-stimulated insulin secretion” value (Min6 cells [2]; listed as MEK inhibitor) of the same molecule?
**A.** attenuated

**Q.** And the “effect of MEK inhibitor on FKN effects on ICER-1, NeuroD, PDX-1 and Glut2 expression” value (Min6 cells [3])?
**A.** abolished

**Q.** With pertussis toxin as the molecule, how does the “effect of inhibitor on FKN-stimulated insulin secretion” value (primary mouse islets) read?
**A.** inhibited

**Q.** And the “sensitivity of FKN-stimulated ERK phosphorylation to inhibitor” value (Min6 cells [4])?
**A.** PTX-sensitive

**Q.** And the “effect on FKN-induced intracellular calcium increase” value (Min6 cells [1]; PTX 250 ng/ml, U0126 10 μM, anti-CX3CR1 antibody vs control antibody)?
**A.** blocked

B1: human FKN: human fractalkine used on isolated human islets (100 or 400 ng/ml) (protein, UniProt P78423 25-397, looked up)
Fractalkine: QHHGVTKCNITCSKMTSKIPVALLIHYQQNQASCGKRAIILETRQHRLFCADPKEQWVKDAMQHLDRQAAALTRNGGTFEKQIGEVKPRTTPAAGGMDESVVLEPEATGESSSLEPTPSSQEAQRALGTSPELPTGVTGSSGTRLPPTPKAQDGGPVGTELFRVPPVSTAATWQSSAPHQPGPSLWAEAKTSEAPSTQDPSTQASTASSPAPEENAPSEGQRVWGQGQSPRPENSLEREEMGPVPAHTDAFQDWGPGSMAHVSVVPVSSEGTPSREPVASGSWTPKAEEPIHATMDPQRLGVLITPVPDAQAATRRQAVGLLAFLGLLFCLGVAMFTYQSLQGCPRKMAGEMAEGLRYIPRSCGSNSYVLVPV
**Q.** What does the source list for B1?
**A.** increase in GSIS (human islets; at the maximal concentration (100 or 400 ng/ml tested)): 65%; GSIS dose response (human islets; human FKN 100 or 400 ng/ml): dose responsive increase
